Assays:
[1] = test system: primary GBM IBD cells; assay: Cell motility analysis; type: cell-based, human; details: 56 h recording
Protocol: The cell speed of the primary GBM culture was determined using Image ExFluorer, an automatic cell imaging device (LCI, Korea). The cells were seeded into 24-well plates, and the cell nuclei were labelled with the fluorescent dye Hoechst 33342. The plates were then placed in an integrated incubator with temperature control (37°C) and 5% CO2. The fluorescence was stimulated at 405 nm using a long-focus semi-apochromatic 20× lens with a numerical aperture of 0.45. The primary IBD cell line was divided into 4 wells, each with five visual fields: two untreated wells on distinct matrices (Collagen I and Fibrinogene) and two wells containing RAS70 peptide on matrices.
FOVs were captured every 15 minutes over 56 hours, resulting in images with a resolution of 2.560 × 2.160 pixels (0.33 μm/px). Real-time focus correction was used. The captured frames were analyzed using the NIS-Elements software with a module for automatic segmentation, quantification, and tracking of individual cells. Cell nuclei (with a diameter of more than 2.5 μm) were recognized in images, and the X-Y coordinates of the nuclei were recorded. Cell movement tracks were built according to the coordinates of the nuclei, and the motility metrics (average speed, maximal speed, and track straightness) were calculated.
Additionally, we evaluated the effect of RAS70 peptide on cell motility of primary glioblastoma culture. In order to investigate the possible influence of the RAS70 peptide on the invasive capacity of tumor cells, we conducted an experiment in which we recorded cell motility on two different substrates (Collagen I, Fibrinogen) for 56 h.

[2] = test system: C6, GL261, and T98G cells; assay: MTT test, overall statement for all cell lines studied; details: fluorescently labeled peptides, 7.5, 75, 750 µg/mL, 24, 48 and 72 hours
Protocol: 3-(4,5-dimethylthiazol-2-yl)-2,5-diphenyltetrazolium bromide (MTT) assay was performed to evaluate the cytotoxic effect of TKD-sCy5, RAS70-sCy5, and NGL-RGD-sCy5 peptides. The C6, GL261, and T98G cells were seeded in 96-well plates (Thermo Fisher Scientific, Waltham, USA) at concentration of 5*10^3 cells in 100 µL per well, plates were incubated at 37°C in 5% CO2. After 24 hours, peptides were added to the culture medium for final concentration of 7.5, 75, and 750 μg/mL; plates were incubated for 24, 48 and 72 hours. […] At the end of the incubation period, 1 mg/mL MTT solution was added for 4 hours and dissolved with DMSO. The absorbance was measured at 570 nm using Varioskan LUX Multimode Microplate Reader (Thermo Fisher Scientific, Waltham, USA).
Subsequently, we analyzed the cytotoxic effect of the peptides (RAS70, TKD, NGL, NGL-RGD) using the MTT test at various peptides concentrations (7.5, 75, 750 µg/mL) and co-incubation times of 24, 48 and 72 hours.

[3] = test system: C6 cells (lower chamber; HUVEC and astrocytes barrier); assay: Transwell BBB model, peptide passage and accumulation in tumor cells; details: transwell BBB model: HUVEC (5×10^5) and astrocytes (5×10^5) in upper chamber, C6 (1×10^4) in lower chamber; FITC-labeled peptide; 36 hours; confocal microscopy count; M ± SE, 3 independent experiments
Protocol: (§1) Then, a peptide labeled with a fluorescent label was introduced into the upper chamber and co-incubation was carried out for 12, 24 and 36 hours. At the end of the incubation, the tumor cells were washed with cold phosphate-buffered saline (PBS) and fixed with a 4% solution of paraformaldehyde in PBS. Nuclei were stained with 4’,6-diamidino-2-phenylindole (DAPI). Fluorescent images were obtained using a Leica TCS SP8 confocal microscope (Leica, Germany). To avoid possible cross-interference of different fluorochromes, images for DAPI and FITC were obtained using a sequential sample scanning method. Fluorescently labeled cells were counted in the lower chamber. To estimate the mHsp70-mediated uptake of chaperone-targeted peptides tumor cells prior to incubation were pre-treated with anti-Hsp70 monoclonal antibodies SPA-810 (1:250, Stressgen) and SPA-815 (1:250 Stressgen). To exclude integrin (αvβ3, αvβ5)-mediated penetration of RAS70 tumor cells prior to incubation with peptides were pre-treated with anti- αvβ3 (1:200 clone LM609, ZMS1030, Sigma-Aldrich, USA), -αvβ5 (1:200 clone P1F6, MAB1961Z, Sigma-Aldrich, USA) monoclonal antibodies.
(§2) Then, a peptide labeled with a fluorescent dye (FITC) was introduced into the upper chamber and co-incubation was carried out for 12, 24 and 36 hours. At the end of the incubation, the tumor cells were washed with cold phosphate-buffered saline (PBS) and fixed with a 4% solution of paraformaldehyde in PBS. Nuclei were stained with 4’,6-diamidino-2-phenylindole (DAPI).
(§3) Data from 3 independent experiments are presented as M ± SE. […] Data from 3 independent experiments are presented as M ± SE. ** p < 0.01 for testing mean expression levels.

[4] = test system: GL261 cells (lower chamber; HUVEC and astrocytes barrier); assay: as above; details: transwell BBB model: HUVEC (5×10^5) and astrocytes (5×10^5) in upper chamber, GL261 (1×10^4) in lower chamber; FITC-labeled peptide; 36 hours; confocal microscopy count; M ± SE, 3 independent experiments
Protocol: as §1, §2, §3

Compound | effect on average cell speed ([1]; IBD cells on Collagen I) | effect on maximum cell speed ([1]; IBD cells on Collagen I) | effect on track straightness ([1]; IBD cells on Collagen I) | effect on motility metrics (average speed, max speed, track straightness) ([1]; IBD cells on fibrinogen) | cytotoxic effect (MTT test) [2] | fluorescently labeled tumor cells in the lower chamber [3] [cells] | fluorescently labeled tumor cells in the lower chamber [4] [cells]
CC(C)C[C@H](NC(=O)[C@H](CC(C)C)NC(=O)[C@H](CC(N)=O)NC(=O)[C@H](CC(N)=O)NC(=O)[C@H](CC(=O)O)NC(=O)[C@H](CCCCN)NC(=O)[C@@H](N)[C@@H](C)O)C(=O)NCC(=O)N[C@@H](CCCNC(=N)N)C(=O)N[C@@H](Cc1ccccc1)C(=O)N[C@@H](CCC(=O)O)C(=O)N[C@@H](CC(C)C)C(=O)N[C@@H](CO)C(=O)NCC(=O)NCCC(=O)N[C@@H](CCCNC(=N)N)C(=O)NCC(=O)N[C@@H](CC(=O)O)C(=O)O [RAS70] | no effect on the average cell speed | slightly diminished maximum cell speed | increased the straightness of the trajectories | did not affect any of the measured motility metrics | – | – | –
CC(C)C[C@H](NC(=O)[C@H](CC(C)C)NC(=O)[C@H](CC(N)=O)NC(=O)[C@H](CC(N)=O)NC(=O)[C@H](CC(=O)O)NC(=O)[C@H](CCCCN)NC(=O)[C@@H](N)[C@@H](C)O)C(=O)NCC(=O)N[C@@H](CCCNC(=N)N)C(=O)N[C@@H](Cc1ccccc1)C(=O)N[C@@H](CCC(=O)O)C(=O)N[C@@H](CC(C)C)C(=O)N[C@@H](CO)C(=O)NCC(=O)O [TKD] | – | – | – | – | did not reveal the toxic effect | 301 ± 35 | 289 ± 51

Reference: article PMC11973282, “RAS70 peptide targets multiforme glioblastoma by binding to the plasma membrane heat shock protein HSP70” (Frontiers in Oncology, 2025)
